Tests used:
[1] = system: Epiocular samples (Ocular Tissue model); experiment: In-vitro Mat Tek ocular irritation protocol (Epiocular, Ocular Tissue model); type: cell-based; conditions: for Ocular Results/Classification: tested at 3.0% active
Procedure: Both products were tested at 3.0% active for dermal and ocular irritation by in-vitro Mat Tek Protocols (Skin model and Ocular Tissue model).
Construction of a Dose Response Curve: The extractant solution within each well was pipetted up and down several times to insure that each is well mixed. 200 microliters of each of the mixed extraction solutions was then pipetted into separate wells of a 96 well microtiter plate. A Dynatech MR 4000 Automatic Microplate Reader was used to determine the optical density of each extract at 570 nm. With the absorbance of a negative control defined as 100%, the percent absorbencies of the articles were determined (% viability=100×(OD [article]/OD [negative control]). The calculated percentages directly correlate with the cell metabolism in the Epiocular samples.
Using a semi-log scale, the percent viability (liner “y” axis) was plotted versus the dosing time (log “x” axis). By interpolation, the time at which the viability has dropped to 50% was determined.

[2] = system: Epiocular samples (Ocular Tissue model); conditions: literature grouping, Kay and Calandra 1962; cited from earlier work
EpiDerm (Skin model) = conditions: groupings used to assign irritancy from ET-50; cited from earlier work

Compound: N′,N″,N′″-Triethyl, N′,N′,N′″,N′″-Tetramethyl, N″-[(Trioxypropyl)-ω-hydroxycetyl], dipropylene triammonium triethosulfate [FINQUAT ® CT-P]
- Mildness in toxicology studies (in words) ([1]; 3.0% active, dermal and ocular irritation, in-vitro Mat Tek Protocols): milder than FINQUAT® CT
- Ocular Results/Classification ([1]; first table): Non-Irritancy (as in Peg 75 Lanolin)
- Ocular Results/Classification ([1]; second table with the same title): Non-Irritancy (as in Peg 75 Lanolin)

Compound: CCCCCCCCCCCCOS(=O)(=O)[O-].[Na+] [2% Sodium Dodecyl Sulfate, Sodium Dodecyl Sulfate]
- Irritancy Classification (example substances of the Draize score / Epiocular ET-50 groups) [2]: Mild (<20.5-9.67)
- Expected In vivo Irritancy (example substances of the EpiDerm ET-50 groups) (EpiDerm (Skin model)): Moderate (0.5-4)

Compound: O=[N+]([O-])O [Conc. Nitric Acid, Nitric Acid]
- Expected In vivo Irritancy (example substances of the EpiDerm ET-50 groups) (EpiDerm (Skin model)): Severe, probably corrosive (<0.5)
